28 compounds from ChEMBL document CHEMBL1201862, “PubChem BioAssay data set” (2004) can be followed below.

The source made the active and inactive calls.

The target in assay [1] is Cytochrome P450 2C9 (Homo sapiens, UniProt P11712).
The target in assay [2] is Cytochrome P450 2C19 (Homo sapiens, UniProt P33261). Put plainly: Cytochrome panel assay with activity outcomes. Panel member name: p450-cyp2c19 Compounds with AC50 equal or less than 10 uM are considered active. Format: functional. As to conditions: read-out: AC50.
Assay [3] deals with Cytochrome P450 2D6 (Homo sapiens, UniProt P10635).
In assay [4] the target is T1, Cytochrome P450 1A2 (Homo sapiens, UniProt P05177).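 Further: PubChem cytochrome P450 panel assay, CYP1A2 panel member.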
T1 sequence (P05177 whole entry): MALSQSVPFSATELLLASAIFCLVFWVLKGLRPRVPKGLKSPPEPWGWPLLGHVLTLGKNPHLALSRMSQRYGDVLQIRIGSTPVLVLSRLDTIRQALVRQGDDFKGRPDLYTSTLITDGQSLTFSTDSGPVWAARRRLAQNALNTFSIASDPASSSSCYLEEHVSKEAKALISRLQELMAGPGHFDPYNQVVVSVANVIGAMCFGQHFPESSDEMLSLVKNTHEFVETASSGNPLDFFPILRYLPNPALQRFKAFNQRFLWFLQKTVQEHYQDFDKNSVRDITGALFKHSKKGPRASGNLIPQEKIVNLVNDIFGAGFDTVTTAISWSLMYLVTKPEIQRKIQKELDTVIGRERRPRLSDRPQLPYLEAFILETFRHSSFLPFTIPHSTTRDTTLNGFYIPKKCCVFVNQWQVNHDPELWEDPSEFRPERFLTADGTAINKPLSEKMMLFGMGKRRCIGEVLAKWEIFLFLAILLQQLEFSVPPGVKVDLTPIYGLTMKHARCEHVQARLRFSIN

Assay [5] concerns the target Cytochrome P450 3A4 (Homo sapiens, UniProt P08684).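 Further: CYP3A4 tested as one member of a cytochrome P450 panel screen.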
Assay [6] deals with H9c2. As to the kind of experiment: cells. Type of assay: functional, cell-based. The following applies: Rattus norvegicus, H9c2, Myocardium.
Assay [7] deals with T2, Replicative DNA helicase DnaB (Mycobacterium tuberculosis, UniProt P9WMR3).
T2 sequence (P9WMR3 whole entry): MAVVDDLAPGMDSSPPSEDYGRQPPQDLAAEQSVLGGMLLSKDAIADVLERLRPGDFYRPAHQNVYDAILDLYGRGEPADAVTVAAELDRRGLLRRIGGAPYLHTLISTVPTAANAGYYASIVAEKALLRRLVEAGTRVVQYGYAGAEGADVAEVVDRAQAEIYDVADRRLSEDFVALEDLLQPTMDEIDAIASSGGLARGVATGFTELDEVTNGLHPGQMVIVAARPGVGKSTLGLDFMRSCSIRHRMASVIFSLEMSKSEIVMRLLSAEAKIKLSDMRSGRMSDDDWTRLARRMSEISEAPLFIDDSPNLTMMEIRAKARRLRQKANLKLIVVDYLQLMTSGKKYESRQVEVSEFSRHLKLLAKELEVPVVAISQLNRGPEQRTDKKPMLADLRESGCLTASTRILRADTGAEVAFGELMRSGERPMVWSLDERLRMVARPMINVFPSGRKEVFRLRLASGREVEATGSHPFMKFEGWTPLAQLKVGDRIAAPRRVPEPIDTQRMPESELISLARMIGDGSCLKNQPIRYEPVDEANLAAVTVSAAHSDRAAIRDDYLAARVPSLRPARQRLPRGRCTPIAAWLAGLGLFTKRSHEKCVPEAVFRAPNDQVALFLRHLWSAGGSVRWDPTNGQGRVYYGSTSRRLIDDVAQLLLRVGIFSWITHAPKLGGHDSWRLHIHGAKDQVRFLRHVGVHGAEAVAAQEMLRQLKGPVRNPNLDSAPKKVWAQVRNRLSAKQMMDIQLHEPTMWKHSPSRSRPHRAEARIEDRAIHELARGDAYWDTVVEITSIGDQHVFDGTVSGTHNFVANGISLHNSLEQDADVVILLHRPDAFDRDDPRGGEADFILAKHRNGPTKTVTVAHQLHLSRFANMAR
As to the kind of experiment: DnaB intein splicing inhibitors, dose response, biochemical, cell-free fluorescence (AID 449749). Type of assay: functional.

Assay [8] deals with T3, Protein RecA (Mycobacterium tuberculosis, UniProt P9WHJ3).
T3 sequence (P9WHJ3 whole entry): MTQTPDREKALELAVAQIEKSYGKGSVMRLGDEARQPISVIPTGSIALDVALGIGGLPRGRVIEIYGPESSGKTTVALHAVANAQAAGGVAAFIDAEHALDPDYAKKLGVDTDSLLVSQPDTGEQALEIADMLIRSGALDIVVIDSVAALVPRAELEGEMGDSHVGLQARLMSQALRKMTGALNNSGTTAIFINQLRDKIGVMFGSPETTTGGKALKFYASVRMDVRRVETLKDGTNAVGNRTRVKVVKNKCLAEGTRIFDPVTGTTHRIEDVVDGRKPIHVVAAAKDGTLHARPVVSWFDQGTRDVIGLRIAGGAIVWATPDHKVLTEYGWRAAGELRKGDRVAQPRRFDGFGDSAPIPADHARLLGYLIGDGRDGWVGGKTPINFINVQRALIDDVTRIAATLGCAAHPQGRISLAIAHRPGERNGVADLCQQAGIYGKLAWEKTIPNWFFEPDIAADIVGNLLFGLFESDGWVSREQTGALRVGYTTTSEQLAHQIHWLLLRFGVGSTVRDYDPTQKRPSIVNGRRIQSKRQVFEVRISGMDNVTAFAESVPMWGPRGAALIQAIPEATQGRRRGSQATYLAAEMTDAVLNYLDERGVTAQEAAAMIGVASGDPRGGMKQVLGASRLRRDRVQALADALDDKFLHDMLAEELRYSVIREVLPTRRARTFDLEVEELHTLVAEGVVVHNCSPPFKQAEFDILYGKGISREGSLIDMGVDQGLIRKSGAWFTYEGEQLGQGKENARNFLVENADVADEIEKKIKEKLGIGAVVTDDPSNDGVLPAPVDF
Put plainly: Fluorescence Cell-Free Homogeneous Dose Retest to Identify Inhibitors of RecA-Intein Splicing Activity. [Related pubchem assays (depositor defined):AID2097, AID2223, AID489010, AID492950]. Type of assay: functional.

In assay [9] the target is Paired box protein Pax-8 (Homo sapiens, UniProt Q06710). As to the kind of experiment: inhibitors of PAX8-driven TPO luciferase reporter, dose response, RMG-I cells, cherry-pick (AID 687027).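 Further: luciferase reporter driven by Pax8 target thyroperoxidase promoter measured by SteadyGlo luminescence.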 Type of assay: functional, cell-based.
Assay [10] deals with T4, Fatty acid synthase (Homo sapiens, UniProt P49327). Put plainly: FAS thioesterase domain inhibitors, dose response, biochemical, endpoint fluorescence intensity, uHTS hits (AID 624327).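 Further: fluorescence from hydrolysis of an O-methyl fluorescein acyl ester substrate by the enzyme.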 Format: functional.
For assay [11], the target named is T4, Fatty acid synthase. Put plainly: FAS thioesterase domain inhibitors, dose response, biochemical, kinetic fluorescence intensity (AID 624326).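 Further: rate of fluorescence rise from hydrolysis of a fluorogenic O-methyl fluorescein ester substrate.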 Format: functional.
Assay [12] in a line: inhibitors of SNCA 5'UTR-driven reporter translation, confirmation, H4 neuroglioma cells, luminescence (AID 1988). Format: functional, cell-based.
Assay [13] is described as follows: Luminescence Cell-Based Dose Response HTS to Identify Inhibitors of 5'UTR Stem-Loop Driven Prion Protein mRNA Translation in H4 Neuroglioblastoma Cells. [Related pubchem assays: 1827 (Project Summary), 1813 (Primary HTS)]. Type of assay: functional.
Assay [14] can be described thus: inhibitors of firefly luciferase expression or activity, dose response, H4 neuroglioma cells, luminescence (AID 1990). Type of assay: functional, cell-based.

One may read the AC50 as the concentration at which the activity in the assay is half-maximal. The term IC50 denotes the midpoint of a concentration-inhibition curve. The EC50 is the concentration giving half of the maximal effect.

T4 sequence (P49327 whole entry, the tested form may be a part): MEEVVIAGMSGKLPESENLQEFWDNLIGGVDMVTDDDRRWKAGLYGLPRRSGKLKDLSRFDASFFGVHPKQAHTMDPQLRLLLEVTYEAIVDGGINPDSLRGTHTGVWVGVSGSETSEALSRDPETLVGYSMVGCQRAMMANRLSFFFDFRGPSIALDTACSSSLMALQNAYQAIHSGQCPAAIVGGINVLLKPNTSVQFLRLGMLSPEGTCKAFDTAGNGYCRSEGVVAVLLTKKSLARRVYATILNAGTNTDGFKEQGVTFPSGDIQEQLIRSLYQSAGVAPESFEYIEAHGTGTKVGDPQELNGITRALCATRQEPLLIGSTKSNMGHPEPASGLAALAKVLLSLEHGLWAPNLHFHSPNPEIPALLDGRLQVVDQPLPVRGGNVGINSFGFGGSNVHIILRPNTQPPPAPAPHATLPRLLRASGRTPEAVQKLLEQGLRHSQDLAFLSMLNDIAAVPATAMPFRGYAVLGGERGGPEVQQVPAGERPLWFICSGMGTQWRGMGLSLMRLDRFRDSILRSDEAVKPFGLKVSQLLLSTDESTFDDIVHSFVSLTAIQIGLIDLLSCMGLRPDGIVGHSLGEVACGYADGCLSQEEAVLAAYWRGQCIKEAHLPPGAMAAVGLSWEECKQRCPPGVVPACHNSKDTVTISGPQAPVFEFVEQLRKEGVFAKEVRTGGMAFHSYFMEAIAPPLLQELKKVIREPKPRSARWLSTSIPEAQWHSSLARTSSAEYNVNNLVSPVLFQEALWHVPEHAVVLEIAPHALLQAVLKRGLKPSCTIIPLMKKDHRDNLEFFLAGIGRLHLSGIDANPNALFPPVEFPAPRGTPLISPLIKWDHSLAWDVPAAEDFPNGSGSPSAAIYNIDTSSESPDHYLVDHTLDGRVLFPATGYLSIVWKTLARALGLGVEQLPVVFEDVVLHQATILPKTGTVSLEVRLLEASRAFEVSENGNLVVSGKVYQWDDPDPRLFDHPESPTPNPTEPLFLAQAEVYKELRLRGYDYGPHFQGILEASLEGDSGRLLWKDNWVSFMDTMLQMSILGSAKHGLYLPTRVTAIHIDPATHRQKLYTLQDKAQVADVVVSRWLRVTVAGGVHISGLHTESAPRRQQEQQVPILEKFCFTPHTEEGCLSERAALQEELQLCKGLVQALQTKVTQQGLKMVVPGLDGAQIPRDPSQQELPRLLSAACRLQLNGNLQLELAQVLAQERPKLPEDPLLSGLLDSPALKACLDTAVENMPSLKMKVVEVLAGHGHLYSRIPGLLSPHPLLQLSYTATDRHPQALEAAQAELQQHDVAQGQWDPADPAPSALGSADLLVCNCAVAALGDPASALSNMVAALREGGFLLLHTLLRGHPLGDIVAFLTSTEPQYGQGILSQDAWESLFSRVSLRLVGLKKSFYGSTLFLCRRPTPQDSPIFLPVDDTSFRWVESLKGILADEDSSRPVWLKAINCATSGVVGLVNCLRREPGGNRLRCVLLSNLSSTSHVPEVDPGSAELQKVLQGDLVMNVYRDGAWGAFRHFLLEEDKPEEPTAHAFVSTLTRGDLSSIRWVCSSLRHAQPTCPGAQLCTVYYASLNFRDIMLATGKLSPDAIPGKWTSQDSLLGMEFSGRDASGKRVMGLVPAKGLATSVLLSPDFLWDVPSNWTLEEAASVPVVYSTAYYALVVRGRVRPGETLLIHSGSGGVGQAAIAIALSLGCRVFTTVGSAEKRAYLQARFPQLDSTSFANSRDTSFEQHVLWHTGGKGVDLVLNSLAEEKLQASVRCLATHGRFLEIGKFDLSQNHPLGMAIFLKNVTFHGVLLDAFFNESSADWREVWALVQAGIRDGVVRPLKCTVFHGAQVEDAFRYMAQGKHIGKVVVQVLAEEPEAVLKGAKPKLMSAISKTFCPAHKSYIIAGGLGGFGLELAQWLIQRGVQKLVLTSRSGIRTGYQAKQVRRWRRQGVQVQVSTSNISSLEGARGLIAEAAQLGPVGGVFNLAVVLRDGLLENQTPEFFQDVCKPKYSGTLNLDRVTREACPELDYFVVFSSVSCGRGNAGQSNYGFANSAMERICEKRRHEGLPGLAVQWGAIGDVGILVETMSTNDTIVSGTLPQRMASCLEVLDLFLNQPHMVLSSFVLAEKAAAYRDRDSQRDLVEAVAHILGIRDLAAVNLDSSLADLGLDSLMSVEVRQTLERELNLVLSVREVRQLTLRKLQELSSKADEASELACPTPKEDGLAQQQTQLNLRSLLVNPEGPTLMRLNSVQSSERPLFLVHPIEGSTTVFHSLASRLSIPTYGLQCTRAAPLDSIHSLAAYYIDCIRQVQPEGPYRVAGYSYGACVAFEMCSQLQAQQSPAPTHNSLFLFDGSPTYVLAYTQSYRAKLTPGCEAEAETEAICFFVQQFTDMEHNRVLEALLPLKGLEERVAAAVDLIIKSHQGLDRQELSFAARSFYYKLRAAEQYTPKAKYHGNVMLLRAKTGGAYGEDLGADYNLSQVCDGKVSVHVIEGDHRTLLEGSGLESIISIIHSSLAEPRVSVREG
Cytochrome P450 2C9, sequence (P11712 whole entry): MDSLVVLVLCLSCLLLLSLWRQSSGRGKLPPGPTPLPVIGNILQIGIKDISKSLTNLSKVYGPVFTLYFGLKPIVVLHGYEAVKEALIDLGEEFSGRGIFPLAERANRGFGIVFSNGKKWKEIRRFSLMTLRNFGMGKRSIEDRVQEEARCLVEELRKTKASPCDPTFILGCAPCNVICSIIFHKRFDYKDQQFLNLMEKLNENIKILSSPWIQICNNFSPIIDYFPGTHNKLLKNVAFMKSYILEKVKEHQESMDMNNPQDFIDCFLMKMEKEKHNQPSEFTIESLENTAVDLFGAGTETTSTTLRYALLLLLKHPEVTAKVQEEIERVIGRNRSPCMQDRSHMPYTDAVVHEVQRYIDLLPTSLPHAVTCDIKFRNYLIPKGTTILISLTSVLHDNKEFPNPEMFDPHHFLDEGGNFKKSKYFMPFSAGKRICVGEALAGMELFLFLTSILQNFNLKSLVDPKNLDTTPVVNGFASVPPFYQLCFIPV
Cytochrome P450 2C19, sequence (P33261 whole entry): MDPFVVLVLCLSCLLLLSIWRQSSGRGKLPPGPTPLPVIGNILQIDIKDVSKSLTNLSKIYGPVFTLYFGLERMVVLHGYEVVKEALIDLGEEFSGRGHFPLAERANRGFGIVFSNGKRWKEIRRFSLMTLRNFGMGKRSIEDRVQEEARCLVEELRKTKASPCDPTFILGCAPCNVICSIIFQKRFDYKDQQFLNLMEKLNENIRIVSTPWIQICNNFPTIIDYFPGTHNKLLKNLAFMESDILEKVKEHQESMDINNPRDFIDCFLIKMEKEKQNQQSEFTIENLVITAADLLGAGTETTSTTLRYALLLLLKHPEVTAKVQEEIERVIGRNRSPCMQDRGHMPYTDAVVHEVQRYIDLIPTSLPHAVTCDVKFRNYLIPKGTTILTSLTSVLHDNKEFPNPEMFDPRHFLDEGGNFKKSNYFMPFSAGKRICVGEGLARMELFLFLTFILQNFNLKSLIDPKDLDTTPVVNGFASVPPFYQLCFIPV
Cytochrome P450 2D6, sequence (P10635 whole entry): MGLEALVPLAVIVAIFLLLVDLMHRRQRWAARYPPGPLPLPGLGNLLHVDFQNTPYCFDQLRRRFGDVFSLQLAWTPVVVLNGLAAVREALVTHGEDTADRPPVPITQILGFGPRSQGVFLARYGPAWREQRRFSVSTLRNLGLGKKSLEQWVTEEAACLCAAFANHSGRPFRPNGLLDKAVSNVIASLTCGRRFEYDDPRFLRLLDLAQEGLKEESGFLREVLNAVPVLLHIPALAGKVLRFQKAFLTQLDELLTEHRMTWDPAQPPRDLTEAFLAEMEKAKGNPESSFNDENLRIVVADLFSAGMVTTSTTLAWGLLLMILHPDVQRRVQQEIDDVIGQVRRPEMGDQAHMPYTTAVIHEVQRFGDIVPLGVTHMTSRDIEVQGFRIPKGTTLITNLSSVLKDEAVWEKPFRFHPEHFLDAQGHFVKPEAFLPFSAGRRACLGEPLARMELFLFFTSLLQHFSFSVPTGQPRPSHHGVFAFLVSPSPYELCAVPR
Cytochrome P450 3A4, sequence (P08684 whole entry): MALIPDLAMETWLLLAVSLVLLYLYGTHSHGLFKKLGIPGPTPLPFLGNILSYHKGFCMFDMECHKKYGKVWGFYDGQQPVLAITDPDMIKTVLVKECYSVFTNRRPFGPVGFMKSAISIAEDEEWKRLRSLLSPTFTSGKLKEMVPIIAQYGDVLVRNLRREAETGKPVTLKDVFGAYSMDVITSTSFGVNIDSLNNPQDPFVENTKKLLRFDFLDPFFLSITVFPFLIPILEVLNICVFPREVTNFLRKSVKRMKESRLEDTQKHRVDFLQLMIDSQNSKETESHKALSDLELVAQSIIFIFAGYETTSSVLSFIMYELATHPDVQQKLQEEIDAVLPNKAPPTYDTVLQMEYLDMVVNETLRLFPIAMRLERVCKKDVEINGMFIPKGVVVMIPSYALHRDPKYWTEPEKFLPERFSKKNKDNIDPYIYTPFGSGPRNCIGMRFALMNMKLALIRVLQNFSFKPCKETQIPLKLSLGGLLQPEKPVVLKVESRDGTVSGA
Paired box protein Pax-8, sequence (Q06710 whole entry, the tested form may be a part): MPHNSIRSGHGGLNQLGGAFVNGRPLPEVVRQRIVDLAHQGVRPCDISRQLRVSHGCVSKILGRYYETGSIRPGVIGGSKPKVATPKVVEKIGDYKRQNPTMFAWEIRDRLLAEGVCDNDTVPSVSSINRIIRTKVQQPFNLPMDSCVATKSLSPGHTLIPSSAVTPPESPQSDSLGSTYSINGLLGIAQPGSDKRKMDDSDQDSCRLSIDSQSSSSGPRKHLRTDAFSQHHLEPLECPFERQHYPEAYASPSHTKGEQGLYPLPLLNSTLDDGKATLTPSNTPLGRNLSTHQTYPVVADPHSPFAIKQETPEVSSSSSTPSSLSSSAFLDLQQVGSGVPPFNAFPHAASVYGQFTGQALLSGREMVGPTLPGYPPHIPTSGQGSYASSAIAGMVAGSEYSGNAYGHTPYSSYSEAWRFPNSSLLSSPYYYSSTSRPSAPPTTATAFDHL

Consider `C[C@@H]1[C@H]2C=C[C@@H]1[C@@H](c1c3ccc(=O)c(O)c-3oc3c(O)c(O)ccc13)[C@@H]2C(=O)O`, for which the figures for the AC50 in assay [1] and in assay [2] were 7.94 µM (inconclusive) and 3.98 µM (inconclusive), respectively.
Consider `COc1ccc(CCNC(=O)c2nnc(O)c3ccccc23)cc1`, for which the AC50 in assay [3] is 5.01 µM (inconclusive); in assay [1], 3.16 µM (inconclusive); in assay [4] it was 7.08 µM (inconclusive); in [5] it was 7.08 µM (inconclusive); in [2], 2.24 µM (inconclusive).
For the compound `Cc1ccc(S(=O)(=O)N(C)C)cc1NC(=O)COC(=O)Cc1nnc(O)c2ccccc12`, the IC50 in assay [6] was > 79 µM (inactive).
Take `CC(C)n1nnnc1SCC(=O)NCc1ccc2c(c1)OCO2`: the AC50 in assay [3] is 25.1 µM (inconclusive); in assay [1] it was 25.1 µM (inconclusive); in assay [4], 12.6 µM (inconclusive).
For `O=C(NCc1ccco1)c1cnn2c(C(F)(F)F)cc(-c3cccs3)nc12`, in [6], the IC50 was 34.1 µM (inactive).
`CCOc1ccccc1C1C(C#N)=C(N)Oc2[nH]nc(CC)c21` (stereo not drawn): the half-maximal activity concentration (AC50) was 17.8 µM (inconclusive) in assay [1], 7.08 µM (inconclusive) in assay [5] and 13.4 µM (active) in assay [7]. Moreover, the EC50 in [8] was 7.04 µM (active).
For the compound `O=C(Oc1ccccc1)N1CCC[C@@]2(CCN(Cc3ccccc3)C2)C1`, the AC50 in [3] was 20 µM (inconclusive); in assay [1], 20 µM (inconclusive); in assay [4] it was 15.8 µM (inconclusive); in [5] it was 15.8 µM (inconclusive); in assay [2] it was 20 µM (inconclusive).
Take `C[C@H](CO)N1C[C@H](C)[C@@H](CN(C)Cc2ccc(Cl)c(Cl)c2)OCCCC[C@H](C)Oc2ccc(NC(=O)Nc3ccccc3)cc2C1=O`: the AC50 in assay [9] is 8.65 µM (active).
On the same count and under the same terms, next, `Nc1nc2c(ncn2[C@@H]2O[C@H](CO)[C@@H](O)[C@H]2O)c(=S)[nH]1` [THIOGUANOSINE]: 1.16 µM (active).
Consider `O=C(Nc1ccc(Cc2ccncc2)cc1)c1ccc(Cl)c([N+](=O)[O-])c1`, for which the concentration for half-maximal inhibition (IC50) is 10.2 µM (active) in assay [10] and 10.9 µM (active) in assay [11].
Consider `CC1(C)OC(=O)C(/C=N/CC(O)c2ccccc2)=C(O)O1` (stereo not drawn), for which the AC50 was 31.6 µM (inconclusive) in [1] and 25.1 µM (inconclusive) in [4].
Regarding `COc1ccc(NC(=O)CN(c2ccc([N+](=O)[O-])cc2)S(=O)(=O)c2ccccc2)c(OC)c1`, the figures for the concentration for half-maximal inhibition (IC50) in assay [10] and in assay [11] were 4.43 µM (active) and 5.78 µM (active), respectively.
For `Cc1c(NC(=O)C2CCN(S(=O)(=O)c3ccc(Cl)cc3)CC2)c(=O)n(-c2ccccc2)n1C`, the AC50 in assay [1] was 14.1 µM (inconclusive).
As to `Cc1ccc(C)c(CN2C(=O)C3CCCN3c3ccc(S(=O)(=O)N4CCOCC4)cc32)c1` (stereo not drawn), the half-maximal activity concentration (AC50) was 14.1 µM (inconclusive) in assay [1] and 6.31 µM (inconclusive) in assay [2].
With `C[C@@H]1Oc2ccc(C(=O)C[C@@H](C(=O)O)c3ccc4c(c3)OCO4)cc2O1`, the AC50 in assay [1] was 6.31 µM (inconclusive); in assay [4] it was 0.794 µM (inconclusive); in assay [2] it was 5.01 µM (inconclusive).
As for `CC(=O)Nc1cc(-c2cccc(C(=O)N(C)C)c2)cn2c(-c3ccc(C(C)=O)cc3)cnc12`, the IC50 in assay [6] was > 79 µM (inactive).
Same read-out and setting: next, `C[C@@H](NC(=O)c1[nH]cnc1C(=O)NCC(=O)OCc1ccccc1)c1ccccc1`: > 79 µM (inactive).
For `CCCOc1ccc2[nH]c(C(=O)N/N=C/c3cc(OC)c(OC)c(OC)c3)cc2c1`, in assay [9], the half-maximal activity concentration (AC50) was 2.89 µM (active). Also, the IC50 in assay [6] was > 79 µM (inactive).
On to `CCn1cc(C(=O)N/N=C(/C)c2ccc(F)cc2)c(=O)c2cc(F)c(N3CCCC3)cc21`, for which, in assay [1], the AC50 is 10 µM (inconclusive).
For `CCCN(/C=N/c1sc2c(c1C#N)CCCCC2)CCC`, the AC50 in assay [3] is 15.8 µM (inconclusive); in [1], 12.6 µM (inconclusive).
For the compound `Cc1[nH]c2ccccc2c1/C=N/NC(=O)c1cc(-c2ccccc2)[nH]n1`, in [6], the IC50 is > 79 µM (inactive).
For the compound `O=C(CNC(=O)c1ccc(F)cc1)N/N=C/c1cc(Br)ccc1OC(=O)/C=C/c1ccco1`, the concentration giving a half-maximal response (EC50) in [12] is 8.72 µM (active); in assay [13] it was 12.1 µM (active); in [14], 11.8 µM (active). Besides, in [6], the IC50 is 19 µM (active).
On to `CC(=O)NC(CCc1ccc(Cl)c(Cl)c1)c1cccc(O)c(=O)c1` (stereo not drawn), for which the AC50 in assay [9] was 2.08 µM (active). In addition, the IC50 in [6] is > 79 µM (inactive).
As to `CC(=O)c1cccc(NC(=O)Nc2ccc3c(c2)N(C)C(=O)CS3)c1`, the IC50 in assay [6] was > 79 µM (inactive).
In the case of `O=C(N/N=C/c1coc2ccc(Cl)cc2c1=O)c1ccc(O)cc1`, the half-inhibitory concentration (IC50) in assay [10] is 6.64 µM (active); in [11], 4.84 µM (active). In [7], the AC50 is > 380 µM (inactive). Moreover, in assay [8], the EC50 was 16.1 µM (active).
Consider `CN1CCN(c2ncc3nc(CCc4ccccc4)c(=O)n(Cc4ccc(F)cc4)c3n2)CC1`, for which the half-maximal activity concentration (AC50) in [1] was 12.6 µM (inconclusive).
For `CC(C)(C)OC(=O)NCc1ccc(CNC(=O)c2[nH]cnc2C(=O)NCC(=O)OCc2ccccc2)cc1`, the IC50 was 6.98 µM (active) in assay [10] and 4.49 µM (active) in assay [11].
As to `COCCn1nnnc1C(C(C)C)N(Cc1cccnc1)Cc1cc2cc(OC)ccc2nc1O` (stereo not drawn), in assay [6], the IC50 was 21.8 µM (active).
